Assay results as given in publication PMC11288129, “Diversely evolved xibalbin variants from remipede venom inhibit potassium channels and activate PKA-II and Erk1/2 signaling” (BMC Biology, 2024).
“Also recorded” adds a separate entry of the source. Positions of bridges follow the written chain, without caps; N, C: chain ends. No end group written: not given here.

Key:
rKv1.4 = assay: TEVC inhibition, Kv1.4; type: cell-based, rat; design: unit not given here; conditions: 1 µM
Text: (§1) For the expression of Kv channels rat Kv1.1 (GenBank accession number: NM_173095 [88, 89]), rKv1.2 (NM_012970 [90, 91]), human Kv1.3 (NM_002232 [92, 93]), rKv1.4 (NM_012971 [94, 95]), rKv1.6 (NM_023954 [96, 97]), hKv2.1 (NM_004975 [98, 99]), hKv3.1 (NM_004976 [100, 101]), rKv4.2 (NM_031739 [102, 103]), hKv10.1 (NM_172362 [104, 105]), hERG1 [Kv11.1, (NM_000238 [106, 107])], and Shaker IR [from Drosophila melanogaster, (NM_167595 [108, 109])], Nav channels [rNav1.2 (NM_012647 [42, 110]), rNav1.4 (NM_013178 [111, 112]), hNav1.5 (NM_198056 [113, 114]), mNav1.6 (NM_001077499 [115, 116]), BgNav [from Blattella germanica, (DQ466887 [117, 118])] and the auxiliary subunits rβ1 (NM_001271045 [119, 120]), hβ1 (NM_001037 [121, 122]), and TipE [from D. melanogaster, (NM_079196 [109, 123])], and Cav channels hCav3.1 [124, 125], hCav3.2 [126, 127], and hCav3.3 [128, 129] in Xenopus oocytes, the linearized plasmids were transcribed using the T7 or SP6 mMESSAGEmMACHINE transcription kit (Ambion, Austin, TX, USA). Mature female animals were purchased from Nasco (Fort Atkinson, USA) and were housed in the Aquatic Facility (KU Leuven) in compliance with the regulations of the European Union (EU) concerning the welfare of laboratory animals as declared in Directive 2010/63/EU. The use of X. laevis oocytes was approved by the Animal Ethics Committee of the KU Leuven with the license number P186/2019. Stage V–VI oocytes were collected from anesthetized female X. laevis frog as previously described, with the frogs anesthetized by placement in 0.1% tricaine solution (amino benzoic acid ethyl ester; Merck, USA). Oocyte microinjection was performed using a microinjector (Drummond Scientifc®, USA), with a programmed cRNA injection volume of 4—50 nL, depending on the channel subtype. The oocytes were incubated in ND96 solution (96 mM NaCl, 2 mM KCl, 1.8 mM CaCl2, 2 mM MgCl2, and 5 mM HEPES, pH 7.4), supplemented with 50 mg/l gentamicin sulfate.
(§2) Electrophysiological measurements were performed at room temperature (18–22 °C) using the two-electrode voltage clamp (TEVC) technique. Data were obtained using a GeneClamp 500 amplifier (Axon Instruments, USA), and Clampex9 software (Axon Instruments), responsible for data acquisition and storage. Glass micropipettes were produced using glass capillaries (borosilicate WPI 1B120-6) and drawn in a WPI (World Precision Instruments, USA) manual stretcher. The bath and perfusion solutions were either the previously described ND96 (Nav and Kv channels) or calcium-free ND96 supplemented with 10 mM BaCl2 (Cav channels).
(§3) Whole-cell currents of oocytes were recorded 1 to 3 days after injection. Current and voltage electrodes were filled with 3 M KCl and their resistance was adjusted from 0.7 to 2.0 MΩ. Currents were sampled at 20 kHz (Nav channels) and 10 kHz (Kv and Cav channels) and filtered using a four-pole Bessel low-pass Bessel filter, at 1 kHz for sodium, and […] for potassium and calcium, except for the hERG ion channel, in which the currents were filtered at 1 kHz. Leak subtraction was performed using a -P/4 protocol. Kv1.x currents were evoked by 500 ms depolarizations to 0 mV followed by a 500-ms pulse to − 50 mV, from a holding potential of − 90 mV. Kv2.1, Kv3.1, and Kv4.2 currents were elicited by 500 ms pulses to + 20 mV from a holding potential of − 90 mV. Current traces of Kv10.1 were elicited by 2 s depolarization to 0 mV, from a holding potential of − 90 mV. Current traces of hERG1 channel were elicited by applying a + 40 mV prepulse for 2 s followed by a step of − 120 mV for 2 s. Sodium current traces were evoked by a 100 ms depolarization to 0 mV, from a holding potential of − 90 mV. The current–voltage (IV) relationships were determined by 100-ms step depolarizations between − 90 and + 40 mV, using 5 mV increments. […]

rKv1.6 = assay: TEVC inhibition, Kv1.6; type: cell-based, rat; conditions: 1 µM
Text: as §1, §2, §3

rNav1.4 = assay: TEVC inhibition, Nav1.4; type: cell-based, rat; conditions: 1 µM, Xenopus oocytes, ND96, 18–22 °C, mean ± SEM, n ≥ 3
Text: (§4) For the expression of Kv channels rat Kv1.1 (GenBank accession number: NM_173095 [88, 89]), rKv1.2 (NM_012970 [90, 91]), human Kv1.3 (NM_002232 [92, 93]), rKv1.4 (NM_012971 [94, 95]), rKv1.6 (NM_023954 [96, 97]), hKv2.1 (NM_004975 [98, 99]), hKv3.1 (NM_004976 [100, 101]), rKv4.2 (NM_031739 [102, 103]), hKv10.1 (NM_172362 [104, 105]), hERG1 [Kv11.1, (NM_000238 [106, 107])], and Shaker IR [from Drosophila melanogaster, (NM_167595 [108, 109])], Nav channels [rNav1.2 (NM_012647 [42, 110]), rNav1.4 (NM_013178 [111, 112]), hNav1.5 (NM_198056 [113, 114]), mNav1.6 (NM_001077499 [115, 116]), BgNav [from Blattella germanica, (DQ466887 [117, 118])] and the auxiliary subunits rβ1 (NM_001271045 [119, 120]), hβ1 (NM_001037 [121, 122]), and TipE [from D. melanogaster, (NM_079196 [109, 123])], and Cav channels hCav3.1 [124, 125], hCav3.2 [126, 127], and hCav3.3 [128, 129] in Xenopus oocytes, the linearized plasmids were transcribed using the T7 or SP6 mMESSAGEmMACHINE transcription kit (Ambion, Austin, TX, USA). […]
(§5) Whole-cell currents of oocytes were recorded 1 to 3 days after injection. […] The current–voltage (IV) relationships were determined by 100-ms step depolarizations between − 90 and + 40 mV, using 5 mV increments. […]

mNav1.6 [1] = assay: TEVC inhibition, Nav1.6; type: cell-based, mouse; conditions: 1 µM, Xenopus oocytes, ND96, 18–22 °C, mean ± SEM, n ≥ 3
Text: as §4, §5

BgNav = assay: TEVC inhibition, BgNav; type: cell-based, Blattella germanica; design: Inhibition data, BgNav: unit not given here; conditions: 1 µM
Text: as §1, §2, §3

hCav3.2 = assay: TEVC inhibition, Cav3.2; type: cell-based, human; design: unit not given here; conditions: 1 µM
Text: as §1, §2, §3

rNav1.2 = assay: TEVC current-voltage relationship (Vhalf), Nav1.2; type: cell-based, rat; design: Vhalf, toxin inactivation, Nav1.2 / Vhalf, toxin activation, Nav1.2: unit not given here; conditions: for Vhalf, toxin activation, Nav1.2 / Vhalf, toxin inactivation, Nav1.2: 1 µM
Text: as §1, §2, §3

mNav1.6 [2] = assay: TEVC current-voltage relationship (Vhalf), Nav1.6; type: cell-based, mouse; design: Vhalf, toxin inactivation, Nav1.6 / Vhalf, toxin activation, Nav1.6: unit not given here; conditions: for Vhalf activation shift, Nav1.6: 1 µM versus control (ND96); for Vhalf, toxin activation, Nav1.6 / Vhalf, toxin inactivation, Nav1.6: 1 µM
Text: as §1, §2, §3

[3] = test system: voltage-gated sodium channels (Nav); assay: TEVC on panel of voltage-gated sodium channels; type: cell-based; conditions: 1 µM
Text: as §4, §5

Sequence	Inhibition data, Kv1.4 (rKv1.4; replicate 1)	Inhibition data, Kv1.4 (rKv1.4; replicate 2)	Inhibition data, Kv1.4 (rKv1.4; replicate 3)	Inhibition data, Kv1.4 (rKv1.4; replicate 4)	Inhibition data, Kv1.6 (rKv1.6; replicate 1)	Inhibition data, Kv1.6 (rKv1.6; replicate 2)	Inhibition data, Kv1.6 (rKv1.6; replicate 3)	inhibition of Nav1.4 (rNav1.4) [%]	inhibition of Nav1.6 (mNav1.6 [1]) [%]	inhibition of BgNav (BgNav)	Inhibition data, BgNav (BgNav; replicate 1)	Inhibition data, BgNav (BgNav; replicate 2)	Inhibition data, BgNav (BgNav; replicate 3)	Inhibition data, BgNav (BgNav; replicate 4)	Inhibition data, Cav3.2 (hCav3.2; replicate 1)	Inhibition data, Cav3.2 (hCav3.2; replicate 2)	Inhibition data, Cav3.2 (hCav3.2; replicate 3)	Inhibition data, Cav3.2 (hCav3.2; replicate 4)	Vhalf, toxin activation, Nav1.2 (rNav1.2; replicate 1)	Vhalf, toxin inactivation, Nav1.2 (rNav1.2; replicate 1)	also measured
KRSCIRRFGRCDHRPNDCCYNSSCRCNLWGSNCRCQRMGLFQKWGK (disulfide 4-19, 11-24, 18-35, 26-33) [xib13]	0.0	0.0	0.0	0.0	81.2	87.8	79.9	33.0 ± 2.4	10.7 ± 0.9	targeted	51.7	40.6	30.9	44.2	0.0	0.0	0.0	0.0	-21.2222	-50.4402	Vhalf activation shift, Nav1.2 (rNav1.2; 1 µM versus control (ND96)): 1.5 mV; Vhalf, toxin activation, Nav1.2 (rNav1.2; replicate 2): -22.3496; Vhalf, toxin inactivation, Nav1.2 (rNav1.2; replicate 2): -54.6262; Vhalf, toxin activation, Nav1.2 (rNav1.2; replicate 3): -23.8888; Vhalf, toxin inactivation, Nav1.2 (rNav1.2; replicate 3): -52.3347; Vhalf, toxin activation, Nav1.2 (rNav1.2; replicate 4): -19.606; Vhalf, toxin inactivation, Nav1.2 (rNav1.2; replicate 4): -52.7049; Vhalf activation shift, Nav1.6 (mNav1.6 [2]): 0.5 mV; Vhalf, toxin activation, Nav1.6 (mNav1.6 [2]; replicate 1): -22.599; Vhalf, toxin inactivation, Nav1.6 (mNav1.6 [2]; replicate 1): -56.1011; Vhalf, toxin activation, Nav1.6 (mNav1.6 [2]; replicate 2): -28.3204; Vhalf, toxin inactivation, Nav1.6 (mNav1.6 [2]; replicate 2): -61.4261; Vhalf, toxin activation, Nav1.6 (mNav1.6 [2]; replicate 3): -27.6893; Vhalf, toxin inactivation, Nav1.6 (mNav1.6 [2]; replicate 3): -56.3883; Vhalf, toxin activation, Nav1.6 (mNav1.6 [2]; replicate 4): -20.1785; Vhalf, toxin inactivation, Nav1.6 (mNav1.6 [2]; replicate 4): -49.5801; inhibition of voltage-gated sodium channels [3]: inhibit voltage-gated sodium channels; also recorded: mild inhibition; also recorded: most significant inhibition rates
RLFCIRHHKYCGHRPKRCCSGLFCRCNTFGTNCRCQSKGALGKLI (disulfide 4-19, 11-24, 18-35, 26-33) [xib1]	0.0	0.0	0.0	0.0	80.8	59.7	81.8	21.8 ± 3.3	5.7 ± 1.2	targeted	10.1	7.7	7.6	7.6	0.0	0.0	0.0	0.0	-16.7542	-48.4729	Inhibition data, Kv1.6 (rKv1.6; replicate 4): 80.2; Vhalf, toxin activation, Nav1.2 (rNav1.2; replicate 2): -15.666; Vhalf, toxin inactivation, Nav1.2 (rNav1.2; replicate 2): -54.2238; Vhalf, toxin activation, Nav1.2 (rNav1.2; replicate 3): -21.743; Vhalf, toxin inactivation, Nav1.2 (rNav1.2; replicate 3): -57.3333; Vhalf, toxin activation, Nav1.2 (rNav1.2; replicate 4): -24.4632; Vhalf, toxin inactivation, Nav1.2 (rNav1.2; replicate 4): -61.3134; Vhalf activation shift, Nav1.6 (mNav1.6 [2]): 1.9 mV; Vhalf, toxin activation, Nav1.6 (mNav1.6 [2]; replicate 1): -19.6324; Vhalf, toxin inactivation, Nav1.6 (mNav1.6 [2]; replicate 1): -54.1984; Vhalf, toxin activation, Nav1.6 (mNav1.6 [2]; replicate 2): -25.3795; Vhalf, toxin inactivation, Nav1.6 (mNav1.6 [2]; replicate 2): -54.8159; Vhalf, toxin activation, Nav1.6 (mNav1.6 [2]; replicate 3): -25.7195; Vhalf, toxin inactivation, Nav1.6 (mNav1.6 [2]; replicate 3): -56.7966; Vhalf, toxin activation, Nav1.6 (mNav1.6 [2]; replicate 4): -23.7149; Vhalf, toxin inactivation, Nav1.6 (mNav1.6 [2]; replicate 4): -53.558; inhibition of voltage-gated sodium channels [3]: inhibit voltage-gated sodium channels; also recorded: mild inhibition
